How the values were obtained:
H1975 = H1975 CellTiter-Glo; assay type: cell-based; settings: Homo sapiens, NCI-H1975; 72 h compound incubation; read-out: H1975 CTG IC50
Method in brief: (§1)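 ATP-based luminescent viability read after 72 h compound exposure (DMSO vehicle, range of concentrations), cells plated 24 h beforehand at 37° C, 5% CO2. IC50 by dose-response fitting; 10 μM Staurosporine and DMSO controls, Z′-factor ≥0.5 required.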

HER2 INS YVMA = biological target: T1, HER2 INS YVMA (Homo sapiens, UniProt P04626, INS775YVMA); assay: Lance Kinase Activity Assay, HER2 INS YVMA (Her2 Exon 20 INSYVMA Lance); assay type: biochemical; settings: biochemical Lance assay
T1 construct: purchased DPF
Method in brief: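 IC50 was fitted to sigmoidal curves of TR-FRET signal (665 and 615 nm emission after 340 nm excitation) from an Eu anti-phospho antibody binding the phosphorylated ULight peptide. The ATP-started reaction ran 1 h at RT and was then quenched with 10 mM EDTA plus antibody for a further 1 h. Compounds were tested as 8-point, 3-fold dilutions.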

A431 = A431 CellTiter-Glo; assay type: cell-based; settings: Homo sapiens, A-431; 72 h compound incubation; read-out: A431 CTG IC50
Method in brief: as §1

[1] = biological target: EGFR Exon 20 INSNPH Ba/F3 (Homo sapiens, UniProt P00533, DUP771-773, cells depend on it); assay: EGFR Exon 20 INSNPH Ba/F3 CellTiter-Glo; assay type: cell-based; settings: CellTiter-Glo, 72 h, read-out: EGFR Exon 20 INSNPH Ba/F3 CTG IC50
Method in brief: (§2)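 Ba/F3 cells dependent on the mutant kinase, seeded and grown 24 h, then treated with compound for 72 h at 37 °C, 5% CO2. Viability by CellTiter-Glo ATP luminescence versus DMSO and 10 μM staurosporine controls; IC50 from dose-response fit, plates accepted at Z′ ≥0.5; bins A ≤100 nM to E >10000 nM.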

EGFR wt = EGFR wt (Homo sapiens, UniProt P00533); assay: EGFR wt Lance assay; assay type: biochemical
Protocol: (§3) Inhibition is indicated as […] [nM] (“−”=not measured). Compounds having an activity designated as “A” provided an IC50≤100 nM; compounds having an activity designated as “B” provided an 100 nM<IC50≤500 nM; compounds having an activity designated as “C” provided an 500 nM<IC50≤1000 nM; compounds having an activity designated as “D” provided an 1000 nM<IC50≤100000 nM; and compounds having an activity designated as “E” provided an IC50>10000 nM.

EGFR T790ML858R = EGFR T790ML858R (Homo sapiens, UniProt P00533, L858R/T790M); assay: EGFR T790ML858R Lance assay; assay type: biochemical
Protocol: as §3

[2] = biological target: Her2 Exon 20 INSYVMA Ba/F3 (Homo sapiens, UniProt P04626, DUP772-775, cells depend on it); assay: Her2 Exon 20 INSYVMA Ba/F3 CellTiter-Glo; assay type: cell-based; settings: CellTiter-Glo, 72 h, read-out: Her2 Exon 20 INSYVMA Ba/F3 CTG IC50
Method in brief: as §2

EGFR wt, sequence (P00533 25-1210): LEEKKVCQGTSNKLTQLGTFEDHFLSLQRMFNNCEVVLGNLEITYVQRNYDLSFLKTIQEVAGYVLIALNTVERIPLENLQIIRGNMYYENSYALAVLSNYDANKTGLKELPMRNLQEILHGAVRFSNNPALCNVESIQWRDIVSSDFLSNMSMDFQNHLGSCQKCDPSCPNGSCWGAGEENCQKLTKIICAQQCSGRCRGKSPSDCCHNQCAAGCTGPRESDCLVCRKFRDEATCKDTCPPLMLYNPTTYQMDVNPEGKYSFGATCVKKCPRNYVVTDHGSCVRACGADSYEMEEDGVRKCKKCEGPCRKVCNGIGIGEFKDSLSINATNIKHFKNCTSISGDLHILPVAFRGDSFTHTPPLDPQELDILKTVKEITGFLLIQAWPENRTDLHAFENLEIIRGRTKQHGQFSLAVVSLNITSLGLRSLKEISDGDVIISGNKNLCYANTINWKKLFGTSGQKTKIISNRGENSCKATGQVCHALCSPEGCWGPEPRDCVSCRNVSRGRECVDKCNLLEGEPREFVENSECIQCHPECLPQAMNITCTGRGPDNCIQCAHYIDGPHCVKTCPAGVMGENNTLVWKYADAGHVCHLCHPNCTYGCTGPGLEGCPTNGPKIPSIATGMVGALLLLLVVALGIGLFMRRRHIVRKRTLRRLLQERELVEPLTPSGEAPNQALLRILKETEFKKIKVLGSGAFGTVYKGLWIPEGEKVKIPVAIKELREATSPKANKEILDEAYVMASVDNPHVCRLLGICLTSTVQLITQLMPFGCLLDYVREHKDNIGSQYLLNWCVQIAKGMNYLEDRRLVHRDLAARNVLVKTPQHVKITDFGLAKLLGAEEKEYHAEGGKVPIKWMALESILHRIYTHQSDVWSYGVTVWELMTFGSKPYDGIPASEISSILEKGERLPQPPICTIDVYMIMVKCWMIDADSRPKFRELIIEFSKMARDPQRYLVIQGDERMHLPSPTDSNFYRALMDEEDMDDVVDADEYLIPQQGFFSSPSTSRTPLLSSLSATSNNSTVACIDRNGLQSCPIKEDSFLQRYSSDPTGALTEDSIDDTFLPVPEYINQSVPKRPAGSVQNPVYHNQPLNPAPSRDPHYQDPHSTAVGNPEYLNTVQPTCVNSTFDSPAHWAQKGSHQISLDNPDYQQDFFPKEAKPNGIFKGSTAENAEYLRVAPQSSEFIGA
EGFR Exon 20 INSNPH Ba/F3, sequence (P00533 with tags, fused parts or gaps DUP771-773): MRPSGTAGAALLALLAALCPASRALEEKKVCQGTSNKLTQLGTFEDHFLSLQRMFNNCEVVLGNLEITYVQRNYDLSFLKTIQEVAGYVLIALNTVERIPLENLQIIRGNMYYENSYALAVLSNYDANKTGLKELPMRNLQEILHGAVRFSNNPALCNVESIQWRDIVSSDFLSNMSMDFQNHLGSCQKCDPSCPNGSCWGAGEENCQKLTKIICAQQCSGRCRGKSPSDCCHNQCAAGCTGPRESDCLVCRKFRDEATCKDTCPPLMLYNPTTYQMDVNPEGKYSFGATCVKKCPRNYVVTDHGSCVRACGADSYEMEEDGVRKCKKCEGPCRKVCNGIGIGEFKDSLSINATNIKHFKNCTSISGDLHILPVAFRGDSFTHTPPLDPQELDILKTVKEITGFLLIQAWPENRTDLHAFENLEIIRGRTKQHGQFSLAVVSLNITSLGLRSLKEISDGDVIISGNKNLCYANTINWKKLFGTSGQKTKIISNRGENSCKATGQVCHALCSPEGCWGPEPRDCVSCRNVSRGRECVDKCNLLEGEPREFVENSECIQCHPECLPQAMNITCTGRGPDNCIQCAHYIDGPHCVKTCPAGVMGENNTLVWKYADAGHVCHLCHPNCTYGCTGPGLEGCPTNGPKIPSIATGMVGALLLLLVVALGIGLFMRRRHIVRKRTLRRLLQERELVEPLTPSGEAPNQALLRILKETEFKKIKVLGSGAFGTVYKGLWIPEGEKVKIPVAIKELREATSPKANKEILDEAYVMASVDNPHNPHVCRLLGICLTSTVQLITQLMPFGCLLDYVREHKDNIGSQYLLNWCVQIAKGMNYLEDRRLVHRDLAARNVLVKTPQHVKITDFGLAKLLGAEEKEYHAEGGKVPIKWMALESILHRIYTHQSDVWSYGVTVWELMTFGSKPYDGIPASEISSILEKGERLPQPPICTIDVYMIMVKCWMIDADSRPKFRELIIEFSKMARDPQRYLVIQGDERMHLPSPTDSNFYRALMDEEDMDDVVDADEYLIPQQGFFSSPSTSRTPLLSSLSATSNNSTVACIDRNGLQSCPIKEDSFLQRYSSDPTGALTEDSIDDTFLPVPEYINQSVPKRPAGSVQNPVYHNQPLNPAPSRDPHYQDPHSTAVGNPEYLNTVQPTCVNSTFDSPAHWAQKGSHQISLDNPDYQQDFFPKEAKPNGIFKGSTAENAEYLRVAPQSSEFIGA
EGFR T790ML858R, sequence (P00533 25-1210 T790M/L858R): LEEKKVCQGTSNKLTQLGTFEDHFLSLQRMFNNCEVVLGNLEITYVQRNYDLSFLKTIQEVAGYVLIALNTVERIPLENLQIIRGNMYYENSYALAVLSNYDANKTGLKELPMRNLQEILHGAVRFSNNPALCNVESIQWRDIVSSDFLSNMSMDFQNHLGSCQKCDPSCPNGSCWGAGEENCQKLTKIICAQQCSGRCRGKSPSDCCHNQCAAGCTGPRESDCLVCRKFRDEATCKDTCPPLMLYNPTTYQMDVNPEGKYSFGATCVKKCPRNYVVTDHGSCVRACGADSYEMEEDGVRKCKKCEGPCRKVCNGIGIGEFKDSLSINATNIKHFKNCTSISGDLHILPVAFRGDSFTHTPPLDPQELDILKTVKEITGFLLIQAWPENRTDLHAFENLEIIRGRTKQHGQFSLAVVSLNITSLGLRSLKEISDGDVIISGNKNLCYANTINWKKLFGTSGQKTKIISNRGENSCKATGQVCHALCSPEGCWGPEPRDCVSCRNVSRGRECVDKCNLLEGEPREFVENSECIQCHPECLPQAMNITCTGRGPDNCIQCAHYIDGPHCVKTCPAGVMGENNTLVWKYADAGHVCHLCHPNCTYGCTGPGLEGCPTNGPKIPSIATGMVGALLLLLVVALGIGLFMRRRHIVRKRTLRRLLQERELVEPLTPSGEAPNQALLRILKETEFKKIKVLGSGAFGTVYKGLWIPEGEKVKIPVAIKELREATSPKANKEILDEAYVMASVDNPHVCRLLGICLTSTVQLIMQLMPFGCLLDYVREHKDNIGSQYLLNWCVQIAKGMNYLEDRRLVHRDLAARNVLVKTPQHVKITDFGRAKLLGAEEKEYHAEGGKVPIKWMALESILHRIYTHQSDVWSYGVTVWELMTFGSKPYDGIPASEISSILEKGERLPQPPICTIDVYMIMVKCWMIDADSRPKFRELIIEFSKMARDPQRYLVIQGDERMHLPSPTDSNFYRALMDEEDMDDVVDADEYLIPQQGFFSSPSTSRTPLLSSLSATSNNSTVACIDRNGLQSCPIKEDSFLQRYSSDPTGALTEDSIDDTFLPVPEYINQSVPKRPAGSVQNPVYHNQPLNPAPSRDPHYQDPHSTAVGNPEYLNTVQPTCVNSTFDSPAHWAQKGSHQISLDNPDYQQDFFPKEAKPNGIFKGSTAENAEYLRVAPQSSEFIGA
Her2 Exon 20 INSYVMA Ba/F3, sequence (P04626 with tags, fused parts or gaps DUP772-775): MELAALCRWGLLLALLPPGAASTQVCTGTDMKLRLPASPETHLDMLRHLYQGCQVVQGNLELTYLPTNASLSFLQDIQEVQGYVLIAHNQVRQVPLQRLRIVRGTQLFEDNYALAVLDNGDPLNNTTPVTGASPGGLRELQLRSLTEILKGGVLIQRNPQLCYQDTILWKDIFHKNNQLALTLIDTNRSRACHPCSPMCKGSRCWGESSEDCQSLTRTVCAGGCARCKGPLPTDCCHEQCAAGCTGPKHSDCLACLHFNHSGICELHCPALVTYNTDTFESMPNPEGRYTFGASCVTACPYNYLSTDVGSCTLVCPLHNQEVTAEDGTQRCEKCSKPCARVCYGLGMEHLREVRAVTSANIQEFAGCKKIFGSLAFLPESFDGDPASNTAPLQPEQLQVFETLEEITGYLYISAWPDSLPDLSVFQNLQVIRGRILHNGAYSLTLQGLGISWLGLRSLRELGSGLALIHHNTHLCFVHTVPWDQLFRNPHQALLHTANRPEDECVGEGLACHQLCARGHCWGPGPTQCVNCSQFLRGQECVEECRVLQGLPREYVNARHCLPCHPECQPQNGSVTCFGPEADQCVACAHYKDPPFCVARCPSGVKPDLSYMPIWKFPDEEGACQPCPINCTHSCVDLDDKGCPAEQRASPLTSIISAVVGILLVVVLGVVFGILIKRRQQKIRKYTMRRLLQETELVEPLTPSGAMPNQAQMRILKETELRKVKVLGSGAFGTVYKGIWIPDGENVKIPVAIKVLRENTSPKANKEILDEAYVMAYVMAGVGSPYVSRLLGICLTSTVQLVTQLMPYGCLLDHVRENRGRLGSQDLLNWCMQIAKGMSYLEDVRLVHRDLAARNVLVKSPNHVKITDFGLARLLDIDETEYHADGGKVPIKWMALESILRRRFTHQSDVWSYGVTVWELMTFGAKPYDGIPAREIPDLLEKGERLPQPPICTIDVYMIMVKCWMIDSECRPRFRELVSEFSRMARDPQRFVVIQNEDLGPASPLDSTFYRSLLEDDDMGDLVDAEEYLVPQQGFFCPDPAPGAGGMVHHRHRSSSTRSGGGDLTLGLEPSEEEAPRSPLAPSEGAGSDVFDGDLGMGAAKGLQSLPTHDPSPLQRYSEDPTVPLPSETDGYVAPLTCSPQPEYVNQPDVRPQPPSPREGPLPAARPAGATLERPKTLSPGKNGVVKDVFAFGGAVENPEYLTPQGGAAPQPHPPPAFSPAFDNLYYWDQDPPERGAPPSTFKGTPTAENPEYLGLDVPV

SMILES	IC50 (H1975) [nM]	IC50 (HER2 INS YVMA) [nM]	IC50 (A431) [nM]	GI50 [1] [nM]	IC50 (EGFR wt) [nM]	IC50 (EGFR T790ML858R) [nM]	GI50 [2] [nM]
C/C=C/C(=O)Nc1cc(-c2c(-c3ccc(N4CCN(C)CC4)cc3)[nH]c3nccc(Cl)c23)ccc1C [Example 142, (E)-N-(5-(4-chloro-2-(4-(4-methylpiperazin-1-yl)phenyl)-1H-pyrrolo[2,3-b]pyridin-3-yl)-2-methylphenyl)but-2-enamide 2,2,2-trifluoroacetate]	100 to 500	500 to 1000	1000 to 100000	1000 to 10000	≤ 100	≤ 100	1000 to 10000
Cc1ccc(-c2c(-c3ccc(N4CCN(C)CC4)cc3)[nH]c3nccc(Cl)c23)cc1NC(=O)/C=C/CN(C)C [Example 143, (E)-N-(5-(4-chloro-2-(4-(4-methylpiperazin-1-yl)phenyl)-1H-pyrrolo[2,3-b]pyridin-3-yl)-2-methylphenyl)-4-(dimethylamino)but-2-enamide 2,2,2-trifluoroacetate]	100 to 500	≤ 100	1000 to 100000	100 to 500	≤ 100	≤ 100	100 to 500
C#CC(=O)Nc1cc(-c2c(-c3ccc(N4CCN(C)CC4)cc3)[nH]c3nccc(Cl)c23)ccc1C [Example 144, N-(5-(4-chloro-2-(4-(4-methylpiperazin-1-yl)phenyl)-1H-pyrrolo[2,3-b]pyridin-3-yl)-2-methylphenyl)propiolamide 2,2,2-trifluoroacetate]	1000 to 100000	≤ 100	1000 to 100000	1000 to 10000	≤ 100	≤ 100	1000 to 10000
C=CS(=O)(=O)Nc1cc(-c2c(-c3ccc(N4CCN(C)CC4)cc3)[nH]c3nccc(Cl)c23)ccc1C [Example 145, N-(5-(4-chloro-2-(4-(4-methylpiperazin-1-yl)phenyl)-1H-pyrrolo[2,3-b]pyridin-3-yl)-2-methylphenyl)ethenesulfonamide 2,2,2-trifluoroacetate]	100 to 500	≤ 100	1000 to 100000	500 to 1000	≤ 100	≤ 100	500 to 1000
C=CC(=O)Nc1cc(-c2c(-c3ccc(N4CCN(C)CC4)cc3)[nH]c3nccc(Cl)c23)cc(C)c1C [Example 150, N-(5-(4-chloro-2-(4-(4-methylpiperazin-1-yl)phenyl)-1H-pyrrolo[2,3-b]pyridin-3-yl)-2,3-dimethylphenyl)acrylamide 2,2,2-trifluoroacetate]	≤ 100	≤ 100	500 to 1000	100 to 500	≤ 100	≤ 100	500 to 1000
C=CC(=O)Nc1cc(-c2c(-c3ccc(CN(C)C)cc3)[nH]c3ncc(C(=O)OC(C)C)cc23)ccc1C [Example 151, isopropyl 3-(3-acrylamido-4-methylphenyl)-2-(4-((dimethylamino)methyl)phenyl)-1H-pyrrolo[2,3-b]pyridine-5-carboxylate]	100 to 500	≤ 100	1000 to 100000	100 to 500	≤ 100	≤ 100	100 to 500
C=CC(=O)Nc1cc(-c2c(-c3ccc(C4CCN(C)CC4)cc3)[nH]c3nccc(Cl)c23)cc(C)c1C [Example 152, N-(5-(4-chloro-2-(4-(1-methylpiperidin-4-yl)phenyl)-1H-pyrrolo[2,3-b]pyridin-3-yl)-2,3-dimethylphenyl)acrylamide]	≤ 100	≤ 100	500 to 1000	100 to 500	≤ 100	≤ 100	100 to 500
C=CC(=O)Nc1cc(-c2c(-c3ccc(N(C)CCN(C)C)cc3)[nH]c3ncc(C(=O)O)cc23)ccc1C [Example 153, 3-(3-acrylamido-4-methylphenyl)-2-(4-((2-(dimethylamino)ethyl)(methyl)amino)phenyl)-1H-pyrrolo[2,3-b]pyridine-5-carboxylic acid 2,2,2-trifluoroacetate]	> 10000	≤ 100	> 10000	> 10000	≤ 100	≤ 100	> 10000

Other lines, results leading:

IC50 (H1975) [nM]	IC50 (HER2 INS YVMA) [nM]	IC50 (A431) [nM]	GI50 [1] [nM]	IC50 (EGFR wt) [nM]	IC50 (EGFR T790ML858R) [nM]	GI50 [2] [nM]	SMILES
100 to 500	≤ 100	1000 to 100000	100 to 500	≤ 100	≤ 100	100 to 500	C=CC(=O)Nc1cc(-c2c(-c3ccc(N4CCN(C)CC4)cc3)[nH]c3ncc(C(=O)OC4CCC4)cc23)ccc1C [Example 136, cyclobutyl 3-(3-acrylamido-4-methylphenyl)-2-(4-(4-methylpiperazin-1-yl)phenyl)-1H-pyrrolo[2,3-b]pyridine-5-carboxylate]
100 to 500	100 to 500	1000 to 100000	500 to 1000	≤ 100	≤ 100	500 to 1000	C=CC(=O)Nc1cc(-c2c(-c3ccc(N4CCN(C)CC4)cc3)[nH]c3ncc(C(=O)OC4CCCCC4)cc23)ccc1C [Example 137, cyclohexyl 3-(3-acrylamido-4-methylphenyl)-2-(4-(4-methylpiperazin-1-yl)phenyl)-1H-pyrrolo[2,3-b]pyridine-5-carboxylate]
100 to 500	100 to 500	1000 to 100000	500 to 1000	≤ 100	≤ 100	500 to 1000	C=CC(=O)Nc1cc(-c2c(-c3ccc(N4CCN(C)CC4)cc3)[nH]c3ncc(C(=O)OC4CCCC4)cc23)ccc1C [Example 139, cyclopentyl 3-(3-acrylamido-4-methylphenyl)-2-(4-(4-methylpiperazin-1-yl)phenyl)-1H-pyrrolo[2,3-b]pyridine-5-carboxylate]
100 to 500	≤ 100	1000 to 100000	100 to 500	≤ 100	≤ 100	100 to 500	C=CC(=O)Nc1cc(-c2c(-c3ccc(N4CCN(C)CC4)cc3)[nH]c3ncc(C(=O)OCCOC)cc23)ccc1C [Example 140, 2-methoxyethyl 3-(3-acrylamido-4-methylphenyl)-2-(4-(4-methylpiperazin-1-yl)phenyl)-1H-pyrrolo[2,3-b]pyridine-5-carboxylate]
100 to 500	≤ 100	1000 to 100000	500 to 1000	≤ 100	≤ 100	500 to 1000	C=CC(=O)Nc1cc(-c2c(-c3ccc(N4CCN(C)CC4)cc3)[nH]c3ncc(C(=O)OC4COC4)cc23)ccc1C [Example 141, oxetan-3-yl 3-(3-acrylamido-4-methylphenyl)-2-(4-(4-methylpiperazin-1-yl)phenyl)-1H-pyrrolo[2,3-b]pyridine-5-carboxylate]
500 to 1000	≤ 100	1000 to 100000	500 to 1000	≤ 100	≤ 100	100 to 500	Cc1ccc(-c2c(-c3ccc(N4CCN(C)CC4)cc3)[nH]c3ncc(C(=O)OC(C)C)cc23)cc1NC(=O)/C=C/CN(C)C [Example 148, (E)-isoproyl 3-(3-(4-(dimethylamino)but-2-enamido)-4-methylphenyl)-2-(4-(4-methylpiperazin-1-yl)phenyl)-1H-pyrrolo[2,3-b]pyridine-5-carboxylate 2,2,2-trifluoroacetate]
100 to 500	≤ 100	1000 to 100000	100 to 500	≤ 100	≤ 100	100 to 500	C=CC(=O)Nc1cc(-c2c(-c3ccc(C4CCN(C)CC4)cc3)[nH]c3ncc(C(=O)OC(C)C)cc23)ccc1C [Example 149, isoproyl 3-(3-acrylamido-4-methylphenyl)-2-(4-(1-methylpiperidin-4-yl)phenyl)-1H-pyrrolo[2,3-b]pyridine-5-carboxylate 2,2,2-trifluoroacetate]
500 to 1000	≤ 100	1000 to 100000	100 to 500	≤ 100	≤ 100	100 to 500	C=CC(=O)Nc1cc(-c2c(-c3ccnc(N4CCN(C)CC4)c3)[nH]c3ncc(C(=O)OC(C)C)cc23)ccc1C [Example 156, isoproyl 3-(3-acrylamido-4-methylphenyl)-2-(2-(4-methylpiperazin-1-yl)pyridin-4-yl)-1H-pyrrolo[2,3-b]pyridine-5-carboxylate 2,2,2-trifluoroacetate]

Reference: US20220370440A1 (Lead Discovery Center GmbH, priority 2018, published 2022)
